Assay results taken from patent US5496805A, “Inhibitors of neutral endopeptidase” (priority 1990, dated 1996).
Structures can show the parent of a compound that is named as a salt. Square brackets hold non-standard residues; d marks the D form. Peptide text beside a SMILES is read from it. Mpa = O=C(O)CCS

These compounds were tested against T1, neutral endopeptidase (Rattus norvegicus, UniProt P07861) (assay: biochemical). Settings: enzyme purified from rat kidney; Dns-Gly-Phe-Arg 0.5 mM; pH 7.5; 37°, 30 minutes; inhibitor preincubated 10 minutes.
T1 sequence (P07861 1-750): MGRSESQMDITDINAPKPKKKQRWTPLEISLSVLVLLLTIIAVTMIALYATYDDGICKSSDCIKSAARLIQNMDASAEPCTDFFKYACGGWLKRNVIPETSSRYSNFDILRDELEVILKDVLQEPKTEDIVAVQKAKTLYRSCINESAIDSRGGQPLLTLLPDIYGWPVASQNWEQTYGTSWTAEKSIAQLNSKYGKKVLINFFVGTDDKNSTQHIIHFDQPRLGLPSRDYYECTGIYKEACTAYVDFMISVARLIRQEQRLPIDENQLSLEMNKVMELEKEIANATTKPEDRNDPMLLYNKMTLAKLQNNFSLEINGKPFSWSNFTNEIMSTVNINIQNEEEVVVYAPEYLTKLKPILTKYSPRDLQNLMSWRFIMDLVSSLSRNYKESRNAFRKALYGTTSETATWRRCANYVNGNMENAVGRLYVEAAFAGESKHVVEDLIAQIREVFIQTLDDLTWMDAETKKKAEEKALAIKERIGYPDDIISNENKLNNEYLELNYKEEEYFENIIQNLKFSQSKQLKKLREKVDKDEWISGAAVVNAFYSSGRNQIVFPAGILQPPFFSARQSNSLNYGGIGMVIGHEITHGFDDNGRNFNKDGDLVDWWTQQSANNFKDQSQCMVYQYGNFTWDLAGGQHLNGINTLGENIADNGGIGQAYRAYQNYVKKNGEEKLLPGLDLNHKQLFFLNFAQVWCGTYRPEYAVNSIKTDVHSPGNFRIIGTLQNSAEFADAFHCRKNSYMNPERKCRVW
Procedure: The in vitro neutral endopeptidase activity is determined using a fluorometric assay procedure. The assay is based upon the cleavage of the fluorescent dansylated tripeptide Dns-Gly-Phe-Arg to form Dns-Gly. The latter is extracted from the acidified mixture by ethyl acetate and is strongly fluorescent.
The incubation mixture employed for the assay contains the substance Dns-Gly-Phe-Arg (0.5 mM), tris(hydroxymethyl)aminomethane -HCl buffer (pH 7.5, 50 mM), an enzyme preparation in 0.05% Triton X-100, and water or inhibitor diluted to a final volume of 0.25 ml. The enzyme preparation is purified from rat kidney according to the procedure described by Almenoff et al. in Biochemistry Vol. 22, p. 590-599 (1983). The inhibitor is preincubated for 10 minutes with the enzyme preparation and buffer before the reaction is initiated by the addition of the substrate. Incubation is carried out at 37° for 30 minutes and the reaction is stopped by the addition of 0.25 ml. 1N HCl and extraction of the Dns-Gly product into 1.5 ml. of ethyl acetate. Relative fluorescent intensity (RFI) of the ethyl acetate extract is measured using a Ferrand Spectofluorometer at excitation and emission wavelengths of 342 and 508 nm., respectively, corrected for the RFI of a zero-time control, and compared with assays lacking inhibitor.
Runs are made at different concentrations of test compound and by use of a mathematical model the IC50 is determined. The IC50 is the concentration of test compound that inhibits activity of the enzyme by 50%.

Row | Structure (SMILES) | IC50
1 | O=C(N[C@@H](Cc1ccccc1)C(=O)O)C(CS)Cc1ccccc1 (single isomer, unassigned; isomer a) [Example 31, N-[2,(Mercaptomethyl)-1-oxo-3-phenylpropyl]-L-phenylalanine (isomer A)] | 5.3 nM
2 | O=C(O)C[C@H](Cc1ccccc1)NC(=O)C(CS)Cc1ccccc1 (single isomer, unassigned; isomer a) [Example 47] | 18 nM
3 | CC(C)CC(CS)C(=O)N[C@@H](C)C(=O)N[C@@H](CCCN=C(N)N)C(=O)O (single isomer, unassigned; isomer a) [Example 56, N-[N-[2-(Mercaptomethyl)-4-methyl-1-oxopentyl]-L-alanyl]-L-arginine (isomer A)] | 23 nM
4 | CC(C)C[C@H](NC(=O)[C@H](Cc1ccccc1)NC(=O)[C@@H]1CCCC[C@H]1S)C(=O)O (single isomer, unassigned; isomer a) [Example 68, (trans)-N-[N-[(2-Mercaptocyclohexyl)carbonyl]-L-phenylalanyl]-L-leucine (isomer A)] | 1200 nM
5 | CC(C)CC(CS)C(=O)N[C@@H](C)C(=O)O (single isomer, unassigned; isomer b) [Example 13, N-[2-(Mercaptomethyl)-4-methyl-1-oxopentyl]-L-alanine (isomer B)] | 2.2 nM
6 | CCCC[C@H](NC(=O)C(CS)Cc1ccccc1)C(=O)O (single isomer, unassigned; isomer b) [Example 30, N-[2,(Mercaptomethyl)-1-oxo,3-phenylpropyl]-L-norleucine (isomer B)] | 20 nM
7 | O=C(N[C@@H](Cc1ccccc1)C(=O)O)C(CS)Cc1ccccc1 (single isomer, unassigned; isomer b) [Example 32, N-[2-(Mercaptomethyl-1-oxo-3-phenylpropyl]-L-phenylalanine (isomer B)] | 8.9 nM
8 | O=C(O)C[C@H](Cc1ccccc1)NC(=O)C(CS)Cc1ccccc1 (single isomer, unassigned; isomer b) [Example 48] | 52 nM
9 | CC(C)CC(CS)C(=O)N[C@@H](C)C(=O)N[C@@H](CCCN=C(N)N)C(=O)O (single isomer, unassigned; isomer b) [Example 57, N-[N-[2-(Mercaptomethlyl)-4-methyl-1-oxopentyl]-L-alanyl]-L-arginine (isomer B)] | 28 nM
10 | O=C(CCS)N[C@@H](Cc1ccccc1)C(=O)O [Example 2, N-(3-Mercapto-1-oxopropyl)-L-phenylalanine] | 380 nM
11 | C[C@H](CS)C(=O)N[C@@H](Cc1ccc(O)c(O)c1)C(=O)O [Example 14, 3-Hydroxy-N-(D-3-mercapto-2-methyl-1-oxopropyl)-L-tyrosine] | 91 nM
12 | C[C@@H](CS)C(=O)N[C@@H](Cc1ccc(O)c(O)c1)C(=O)O [Example 15, 3-Hydroxy-N-(R-3-mercapto-2-methyl-1-oxopropyl)-L-tyrosine] | 30 nM
13 | CC(C)C[C@H](NC(=O)[C@H](C)CS)C(=O)O [Example 40, (S),N-(3-Mercapto-2-methyl-1-oxopropyl)-L-leucine] | 190 nM
14 | C[C@H](CS)C(=O)N[C@H](C(=O)O)[C@@H](C)O [Example 41, (S)-N-(3-Mercapto-2-methyl-1-oxopropyl)-L-threonine] | 730 nM
15 | C[C@H](CS)C(=O)N[C@@H](CC(=O)O)C(=O)O [Example 42, (S)-N-(3-Mercapto-2-methyl-1-oxopropyl)-L-aspartic acid] | 36 nM
16 | CC[C@H](C)[C@H](NC(=O)[C@H](C)CS)C(=O)O [Example 43, (S)-N-(3-Mercapto-2-methyl-1-oxopropyl)-L-isoleucine] | 64 nM
17 | C[C@H](CS)C(=O)N[C@@H](CC(N)=O)C(=O)O [Example 44, (S)-N^2-(3-Mercapto-2-methyl-1-oxopropyl)-L-asparagine] | 220 nM

Row | Structure (SMILES) | IC50
18 | O=C(O)CCCCCCCNC(=O)C(CS)Cc1ccccc1 (stereo not shown) [Example 51, 8-[[2-(Mercaptomethyl)-1-oxo-3-phenylpropyl]amino]-octanoic acid] | 20 nM
19 | C[C@H](NC(=O)[C@H](Cc1ccccc1)NC(=O)CS)C(=O)O [Example 60, N-[N-(Mercaptoacetyl)-L-phenylalanyl]-L-alanine] | 31 nM
20 | O=C(CS)N[C@@H](Cc1ccccc1)C(=O)N[C@@H](Cc1ccccc1)C(=O)O [Example 61, N-[N-(Mercaptoacetyl)-L-phenylalanyl]-L-phenylalanine] | 120 nM
21 | O=C(CCS)N[C@@H](Cc1ccccc1)C(=O)N[C@@H](Cc1ccccc1)C(=O)O [Example 62, N-[N-(3-Mercapto-1-oxopropyl)-L-phenylalanyl]-L-phenylalanine] ([Mpa]-Phe-Phe-OH) | 740 nM
22 | CC(C)C[C@H](NC(=O)CS)C(=O)NCC(=O)O [Example 63, N-[N-(Mercaptoacetyl)-L-leucyl]glycine] | 310 nM
23 | C[C@H](NC(=O)[C@H](S)Cc1ccccc1)C(=O)N1CCC[C@H]1C(=O)O [Example 65] | 62 nM
24 | O=C(O)CC(=O)NC(CS)Cc1ccccc1 (stereo not shown) [Example 69, 3-[[1-(Mercaptomethyl)-2-phenylethyl]amino]-3-oxo-propanoic acid] | 12 nM
25 | O=C(O)CCCCC(=O)NC(CS)Cc1ccccc1 (stereo not shown) [Example 70, 6-[[1-(Mercaptomethyl)-2-phenylethyl]amino]-6-oxohexanoic acid] | 3.1 nM
26 | O=C(O)CCCCCCC(=O)NC(CS)Cc1ccccc1 (stereo not shown) [Example 71, 8-[[1-(MercaDtomethyl)-2-phenylethyl]amino]-8-oxooctanoic acid] | 14 nM
27 | CC(C)C[C@H](NC(=O)C(Cc1ccccc1)CP(C)(=O)O)C(=O)O (stereo partly drawn) [Example 74, N-[2-[(hydroxymethylphosphinyl)methyl]-1-oxo-3-phenylpropyl]-L-leucine, dilithium salt] | 950 nM
28 | O=C(O)CCNC(=O)C(Cc1ccccc1)CP(=O)(O)O (stereo not shown) [Example 75, 3-[[1-Oxo-2-(phenylmethyl)-3-phosphonopropyl]amino]propanoic acid] | 40 nM
29 | CC(C)C[C@H](NC(=O)[C@H](Cc1ccccc1)OP(=O)(O)CCc1ccccc1)C(=O)O [Example 77, N-[(S)-2-[[Hydroxy(2-phenylethy1)phosphinyl]oxy]-1-oxo-3-phenylpropyl]-L-leucine, dilithium salt] | 2200 nM
30 | O=C(O)CCNC(=O)[C@H](Cc1ccccc1)N[C@@H](Cc1ccccc1)C(=O)O [Example 78, 3-[[N-[(S)-1-Carboxy-2-phenylethyl]-L-phenylalanyl]-amino]propanoic acid] | 13 nM
31 | O=C(O)CCCCCCNC(=O)[C@H](Cc1ccccc1)N[C@@H](Cc1ccccc1)C(=O)O [Example 79, 7-[[N-[(S)-l-Carboxy-2-phenylethyl]-L-phenylalanyl]amino]heptanoic acid] | 940 nM
32 | CC(C)C[C@H](NC(=O)[C@H](Cc1ccccc1)N[C@@H](Cc1ccccc1)C(=O)O)C(=O)O [Example 80, N-[N-[(S)-l-Carboxy-2-phenylethyl]-L-phenylalanyl]-L-leucine] | 330 nM
33 | N=C(N)NCCC[C@H](NC(=O)CNC(=O)C(CS)Cc1ccccc1)C(=O)O (stereo partly drawn) [Example 82, N-[N-[2-(Mercaptomethyl)-1-oxo-3-phenylpropyl]glycyl]-L-arginine] | 15 nM
34 | CC(C)[C@H](NC(=O)CS)C(=O)N[C@@H](Cc1c[nH]c2ccccc12)C(=O)O [lithium salt] | 680 nM
